Measured values published in US5608095A, “Alkyl-4-silyl-phenols and esters thereof as antiatherosclerotic agents” (Hoechst Marion Roussel, Inc., priority 1996, dated 1997).
Like-named read-outs stand apart in the source and are kept apart here.

What was measured:
VCAM-1 = assay: Cell surface ELISA for VCAM-1 in human aortic smooth muscle cells (HASMC), interleukin-4 induced; type: cell-based; conditions: 50 μm; for VCAM-1 (Avg.) % inh.: average of HSMC-1 to HSMC-3; for HSMC-1 % inh. of VCAM-1: experiment HSMC-1, interleukin-4, about 20 hr; for HSMC-2 % inh. of VCAM-1: experiment HSMC-2, interleukin-4, about 20 hr; for HSMC-3 % inh. of VCAM-1: experiment HSMC-3, interleukin-4, about 20 hr
Procedure: Cell Surface ELISA for VCAM-1/ICAM-1
Proliferating human umbilical vein endothelial cells (HUVEC) or human aortic smooth muscle cells (HASMC) from Clonetics (San Diego, Calif.) were plated onto 96-well plates in 100 μL medium per well at 20,000 cells per cm^2. The cultures were maintained in growth medium (EGM or SMGM2, Clonetics, San Diego, Calif.) for two days prior to addition of cytokines or drugs. Cytokines plus or minus compounds were added for 20 to 24 hours prior to analysis for adhesion molecule levels. Tumor necrosis factor (Genzyme, Cambridge, Mass.) was added to cultures at 500-1000 units/mL. Interleukin-4 (GIBCO-BRL, Gaithersburg, Md.) was added to cultures at 100-200 pg/mL. (Additions were made by transferring 100 [μL of cytokines plus compounds serially diluted on a separate 96-well plate into the plates containing cells. The medium on the cultures was not exchanged prior to addition of effectors). The culture medium was removed, and the monolayers were washed twice with Hanks buffered saline solution (HBSS) at room temperature. The primary antibody (anti-human VCAM-1 from Upstate Biotechnology, Inc., Lake Placid, N.Y. or anti-human ICAM-1 from Immunotech, Inc., Westbrook, Me.) was added to each well (1 μg/mL in HBSS plus 5% newborn calf serum, GIBCO-BRL, Gaithersburg, Md.) and incubated at 37° C. for 1 hr. The wells were washed twice with HBSS, then 100 μL of a 1/1000 dilution of goat anti-mouse IgG conjugated to horse radish peroxidase (BioRad, Hercules, Calif.) in HBSS plus 5% newborn calf serum was added to each well and incubated for 1 hr at 37° C. The wells were washed three times with HBSS, then 100 μL of TMB substrate (BioRad, Hercules, Calif.) was added to each well. The reaction was stopped after blue color developed by addition of 50 μL of 1N H2 SO4. Absorbance is measured at 450 nm with a plate reader. IC50 values were determined from curves of absorbance values obtained from serial dilutions of compounds (dissolved in dimethyl sulfoxide).
The IC50 value is defined as the drug concentration that inhibits the cytokine-induced adhesion molecule expression by 50%. Maximal values for adhesion molecule expression in cytokine-induced cultures was […] the basal level of adhesion molecule expression (minus cytokines) in the cultures to determine the level of induction. […] Each drug concentration was tested in quadruplicate wells. Single point tests of compounds at 50 μM were assayed as described for IC50 determinations, except that the data represent the level of inhibition without correction for basal expression. (Basal adhesion molecule expression was 10-20% of the total induced expression). Table 1 summarizes the ability of various compounds of this invention to inhibit VCAM-1 using human aortic smooth muscle cells (HASMC). In these experiments, the cells were coincubated with interleukin-4 and the compounds listed about 20 hr before assaying cell surface VCAM-1 levels. Each column represents a separate experiment.

[1] = HPLC quantitation of compound and metabolite concentration in rabbit serum and liver; type: in vivo, female New Zealand White rabbits; conditions: for concentration at 168 h: po
Method in brief: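 Female New Zealand White rabbits fed 0.2% cholesterol chow with 0.4% compound (some at 0.26% or 0.6%) for 7 days (14 days at 0.6%), fasted overnight before sampling. Serum and liver extracts run by reverse-phase C18 HPLC, absorbance 240/254/420 nm, for parent, bisphenol and diphenoquinone; recovery-corrected, detection limit ~0.5 μg/mL.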

[2] = rabbit liver, diet 0.4%, 7 days, read-out: Liver Parent = parent compound concentration
[3] = rabbit serum, diet 0.4%, 7 days, read-out: Serum Parent = parent compound concentration
[4] = rabbit liver, diet 0.4%, 7 days
[5] = rabbit serum, diet 0.4%, 7 days

Row | Compound | VCAM-1 (Avg.) % inh. (VCAM-1) [%] | HSMC-1 % inh. of VCAM-1 (VCAM-1) [%] | HSMC-2 % inh. of VCAM-1 (VCAM-1) [%] | HSMC-3 % inh. of VCAM-1 (VCAM-1) [%] | concentration at 168 h [1, 2] [ng/g] | concentration at 168 h [1, 3] [ng/mL] | Liver Parent = parent compound concentration [1, 4] [µg/g] | Serum Parent = parent compound concentration [1, 5] [µg/mL] | Liver Parent = parent compound concentration ([1]; rabbit liver, diet 0.6%, 14 days) [µg/g] | Serum Parent = parent compound concentration ([1]; rabbit serum, diet 0.6%, 14 days) [µg/mL]
1 | CC(C)(C)c1cc(OC[Si](C)(C)c2ccccc2)cc(C(C)(C)C)c1OC(=O)CCC(=O)O [MDL 103,076, 2,6-Di-t-butyl-4-[(dimethylphenylsilyl)methyloxy]phenol succinic acid ester] | 43.9 | 30.6 | 55.0 | 46.0 |  |  |  |  |  | 
2 | CC(C)(C)c1cc(OC[Si](C)(C)c2ccccc2)c(C(C)(C)C)cc1O [MDL 104,962, 2,5-Di-t-butyl-4-[(dimethylphenylsilyl)methyloxy]phenol] |  |  |  |  | 3600 | 3800 |  |  |  | 
3 | CC(=O)Oc1ccc(OC[Si](C)(C)c2ccccc2)cc1C(C)(C)C [MDL 105,443, 2-t-Butyl-4-[(dimethylphenylsilyl)methyloxy]phenol acetic acid ester] | 25.8 | 11.4 | 44.0 | 22.0 |  |  | 0 | 0 |  | 
4 | CC(C)(C)c1cc(OC[Si](C)(c2ccccc2)c2ccccc2)cc(C(C)(C)C)c1O [MDL 104,599, 2,6-Di-t-butyl-4-[(diphenylmethylsilyl)methloxy]phenol] | 45.7 | 50.1 | 38.0 | 49.0 | 47200 | 14800 |  |  |  | 
5 | COc1ccc([Si](C)(C)COc2ccc(O)c(C(C)(C)C)c2)cc1 [MDL 106,834, 2-t-Butyl-4-[(dimethyl-p-methoxylphenylsilyl)methyloxy]phenol] |  |  |  |  | 9100 | 2900 |  |  |  | 
6 | CC(C)(C)c1cc(SC[Si](C)(C)c2ccccc2)cc(C(C)(C)C)c1OC(=O)CCC(=O)O [MDL 103,141, 2,6-Di-t-butyl-4-[(dimethylphenylsilyl)methylthio]phenol sucinic acid ester] | 31.2 | 13.7 | 47.0 | 33.0 |  |  |  |  |  | 
7 | CC(C)(C)c1cc(OC[Si](C)(C)c2ccccc2)ccc1O [MDL 103,491, 2-t-Butyl-4-[(dimethylphenylsilyl)methyloxy]phenol] | 53.0 |  | 57.0 | 49.0 |  |  | 0 | 0 | 0 | 0
8 | Cc1cc(OC[Si](C)(C)c2ccccc2)c(C)c(C)c1O [MDL 105,314, 2,3,6-Trimethyl-4-[(dimethylphenylsdilyl)methloxy]phenol] | 28.2 | 8.7 | 38.0 | 38.0 |  |  |  |  |  | 
9 | CC(C)(C)c1cc(OC[Si](C)(C)c2ccc(C(F)(F)F)cc2)cc(C(C)(C)C)c1O [MDL 105,975, 2,6-Di-t-butyl-4-[(dimethyl-4-trifluoromethylphenylsilyl)methyloxy]phenol] | 19.8 |  | 20.0 | 51.0 | 54600 | 13800 |  |  |  | 
10 | CN(C)c1ccc([Si](C)(C)COc2cc(C(C)(C)C)c(O)c(C(C)(C)C)c2)cc1 [MDL 104,556, 2,6-Di-t-butyl-4-[(4-N,N-dimethylaminophenyldimethylsilyl)methyloxy]phenol] | 56.7 | 54.1 | 58.0 | 58.0 | 7900 | 4900 |  |  |  | 
11 | CC(=O)Oc1c(C(C)(C)C)cc(OC[Si](C)(C)c2ccccc2)cc1C(C)(C)C [MDL 103,377, 2,6-Di-t-butyl-4-[(dimethylphenylsilyl)methyloxy]phenol acetic acid ester] | 45.5 |  | 45.0 | 46.0 |  |  |  |  |  | 
